Values of other authors in patent US20010049447A1, “Mibefradil analogues and their use” (priority 2000, published 2001).

Tested on: fructose fed rats

**Q.** With `COCC(=O)O[C@]1(CCN(C)CCCc2nc3ccccc3[nH]2)CCc2cc(F)ccc2[C@@H]1C(C)C.Cl.Cl` [mibefradil, Methoxyacetic acid 2(S)-[2-[N-[3-(2-benzimidazolyl)propyl]-N-methylamino]ethyl]-6-fluoro-1(S)-isopropyl-1,2,3,4-tetrahydro-2-naphthyl ester dihydrochloride] as the compound, how does the blood pressure read?
**A.** decrease

**Q.** And the hyperinsulinemia?
**A.** decrease
